Structures can show the parent of a compound that is named as a salt.
What was measured:
human SMG1 enzyme = human SMG1 enzyme (Homo sapiens, UniProt Q96Q15); test: Measurement of SMG1 kinase activity (ADP-Glo Kinase Assay); type: biochemical; settings: purified human SMG1 enzyme 5 nM, Upf1 peptide substrate, ATP 4 μM; qAC50 synonymous with IC50; read-out: Test Example 1 ADP-Glo IC50
Excerpt: The SMG1 kinase inhibitory activity of a compound of the present invention or a pharmaceutically acceptable salt thereof can be measured, for example, by the method described below. Using purified human SMG1 protein and a substrate peptide as materials, the kinase activity can be measured by the ADP-Glo Kinase Assay; the SMG1 kinase inhibitory activity of a test substance can be evaluated by comparing the kinase activity in the presence and absence of the test substance.
The reaction was performed by the ADP-Glo Kinase Assay (Promega, catalog number V9102) using a 384-well plate under the conditions of an assay buffer (100 mM HEPES (pH 7.5), 50 mM NaCl, 10 mM MnCl2, 0.01% BSA, 0.1% Tween 20.5 mM TCEP). After incubating a test substance (DMSO solution; final DMSO concentration: 1%) and purified human SMG1 enzyme (Genes Dev. 2011 Jan. 15; 25(2): 153-164, produced by Daiichi Sankyo RD Novare Co., Ltd.; final concentration: 5 nM) at room temperature for 15 minutes, a substrate, Upf1 peptide (Biotin-(PEG8) QIDVALSQDSTYQG, produced by Eurofins genomics; final concentration: 8 μg/mL), and ATP (Promega: 4 μM) were added, and the mixture was reacted at room temperature for 60 minutes (see Non-Patent Literature R. Melero, et al., Structure Volume 22, Issue 8, 5 Aug. 2014, Pages 1105-1119 for the Upf1 peptide). ADP-Glo Reagent was added, and the mixture was reacted at room temperature for 40 minutes. Kinase Detection Reagent was added, and the mixture was reacted for another 30 minutes. The luminescence intensity was measured using EnVision (PerkinElmer).
The activity value (%) of the test substance-added well was calculated from the following formula, where the average luminescence intensity of the DMSO-added well was 0% and the average luminescence intensity of the SMG1 enzyme-free well was −100%.
The qAC50 (compound concentration showing 50% inhibition, synonymous with IC50) of the test substance was calculated using the activity value (%) at each concentration by Smart fit of Screener (Genedata). Smart fit is a general 4-parameter logistic regression model.

[1] = system: Snhg1 transcript (NMD target gene) in EMT6 murine breast cancer cell line; test: Measurement of NMD inhibitory activity in cells (increase in Snhg1 transcript, real-time PCR); set-up: species or system mouse; settings: Mus musculus, 6 hours treatment, concentration giving 1/2 of maximum Snhg1 fold change of positive control, read-out: Test Example 2 Cell-based Snhg1 EC50
Protocol: The NMD inhibitory activity of a compound of the present invention or a pharmaceutically acceptable salt thereof in cells can be measured, for example, by the method described below. EMT6 murine breast cancer cell line is treated with a test substance in vitro for 6 hours, and the increase in the transcript of Snhg1, a known NMD target gene, is quantified as an indicator of NMD inhibition. Quantification is performed by real-time PCR.
NMD inhibitory activity was measured by treating EMT6 murine breast cancer cell line (ATCC) with a test substance and quantifying the increase in the transcript of Snhg1, an NMD target gene (see F. Usui, et al., Scientific Reports volume 9, Article number: 1279 (2019) for the NMD target gene). That is, EMT6 cells were suspended in Waymouth's medium (Gibco, 15% FBS) and seeded in a 96-well plate at 2×10^4 cells/well. The cells were cultured for 1 day. The next day, serially diluted test substance (DMSO solution, final DMSO concentration: 2%) was added. After culturing for 6 hours, the supernatant was removed, and RNA was extracted using the RNeasy 96 kit (QIAGEN, 74182). After synthesizing cDNA using the High Capacity cDNA Reverse Transcription kit (Applied Biosystems, 4368813), the cDNA was mixed with PrimeTime Gene Expression Master Mix (Integrated DNA Technologies) and various probes, and gene expression was quantified using QuantStudio 6 Flex (Thermo Fisher Scientific Inc.). For the probe for the Snhg1 gene, which is an NMD target, Mm.PT.58.44039547 (FAM)(Integrated DNA Technologies) was used, and for the probe for the Tbp gene, which is an endogenous control, Mm00446973_m1 Tbp (VIC-PL) (Applied Biosystems) was used. The relative quantification of Snhg1 transcripts was calculated by the ΔΔCT method, using Thp as an endogenous control and setting the expression level of Snhg1 in untreated wells to 1.
A known NMD inhibitory compound (pyrimidine derivative Example 11i, Bioorg Med Chem Lett. 2012, 22(21), 6636-41) was used as a positive control drug for NMD inhibition. The NMD inhibitory activity of the test substance-added well was calculated as follows: the maximum fold change in Sngh1 expression in the positive control drug-added well relative to that in the untreated well was defined as the maximum NMD inhibitory activity, and the EC50 (compound concentration showing 50%/activity) of the test substance showing a ½-fold change was calculated by the GROWTH function of Microsoft Excel.

Sequence of human SMG1 enzyme (Q96Q15 whole entry): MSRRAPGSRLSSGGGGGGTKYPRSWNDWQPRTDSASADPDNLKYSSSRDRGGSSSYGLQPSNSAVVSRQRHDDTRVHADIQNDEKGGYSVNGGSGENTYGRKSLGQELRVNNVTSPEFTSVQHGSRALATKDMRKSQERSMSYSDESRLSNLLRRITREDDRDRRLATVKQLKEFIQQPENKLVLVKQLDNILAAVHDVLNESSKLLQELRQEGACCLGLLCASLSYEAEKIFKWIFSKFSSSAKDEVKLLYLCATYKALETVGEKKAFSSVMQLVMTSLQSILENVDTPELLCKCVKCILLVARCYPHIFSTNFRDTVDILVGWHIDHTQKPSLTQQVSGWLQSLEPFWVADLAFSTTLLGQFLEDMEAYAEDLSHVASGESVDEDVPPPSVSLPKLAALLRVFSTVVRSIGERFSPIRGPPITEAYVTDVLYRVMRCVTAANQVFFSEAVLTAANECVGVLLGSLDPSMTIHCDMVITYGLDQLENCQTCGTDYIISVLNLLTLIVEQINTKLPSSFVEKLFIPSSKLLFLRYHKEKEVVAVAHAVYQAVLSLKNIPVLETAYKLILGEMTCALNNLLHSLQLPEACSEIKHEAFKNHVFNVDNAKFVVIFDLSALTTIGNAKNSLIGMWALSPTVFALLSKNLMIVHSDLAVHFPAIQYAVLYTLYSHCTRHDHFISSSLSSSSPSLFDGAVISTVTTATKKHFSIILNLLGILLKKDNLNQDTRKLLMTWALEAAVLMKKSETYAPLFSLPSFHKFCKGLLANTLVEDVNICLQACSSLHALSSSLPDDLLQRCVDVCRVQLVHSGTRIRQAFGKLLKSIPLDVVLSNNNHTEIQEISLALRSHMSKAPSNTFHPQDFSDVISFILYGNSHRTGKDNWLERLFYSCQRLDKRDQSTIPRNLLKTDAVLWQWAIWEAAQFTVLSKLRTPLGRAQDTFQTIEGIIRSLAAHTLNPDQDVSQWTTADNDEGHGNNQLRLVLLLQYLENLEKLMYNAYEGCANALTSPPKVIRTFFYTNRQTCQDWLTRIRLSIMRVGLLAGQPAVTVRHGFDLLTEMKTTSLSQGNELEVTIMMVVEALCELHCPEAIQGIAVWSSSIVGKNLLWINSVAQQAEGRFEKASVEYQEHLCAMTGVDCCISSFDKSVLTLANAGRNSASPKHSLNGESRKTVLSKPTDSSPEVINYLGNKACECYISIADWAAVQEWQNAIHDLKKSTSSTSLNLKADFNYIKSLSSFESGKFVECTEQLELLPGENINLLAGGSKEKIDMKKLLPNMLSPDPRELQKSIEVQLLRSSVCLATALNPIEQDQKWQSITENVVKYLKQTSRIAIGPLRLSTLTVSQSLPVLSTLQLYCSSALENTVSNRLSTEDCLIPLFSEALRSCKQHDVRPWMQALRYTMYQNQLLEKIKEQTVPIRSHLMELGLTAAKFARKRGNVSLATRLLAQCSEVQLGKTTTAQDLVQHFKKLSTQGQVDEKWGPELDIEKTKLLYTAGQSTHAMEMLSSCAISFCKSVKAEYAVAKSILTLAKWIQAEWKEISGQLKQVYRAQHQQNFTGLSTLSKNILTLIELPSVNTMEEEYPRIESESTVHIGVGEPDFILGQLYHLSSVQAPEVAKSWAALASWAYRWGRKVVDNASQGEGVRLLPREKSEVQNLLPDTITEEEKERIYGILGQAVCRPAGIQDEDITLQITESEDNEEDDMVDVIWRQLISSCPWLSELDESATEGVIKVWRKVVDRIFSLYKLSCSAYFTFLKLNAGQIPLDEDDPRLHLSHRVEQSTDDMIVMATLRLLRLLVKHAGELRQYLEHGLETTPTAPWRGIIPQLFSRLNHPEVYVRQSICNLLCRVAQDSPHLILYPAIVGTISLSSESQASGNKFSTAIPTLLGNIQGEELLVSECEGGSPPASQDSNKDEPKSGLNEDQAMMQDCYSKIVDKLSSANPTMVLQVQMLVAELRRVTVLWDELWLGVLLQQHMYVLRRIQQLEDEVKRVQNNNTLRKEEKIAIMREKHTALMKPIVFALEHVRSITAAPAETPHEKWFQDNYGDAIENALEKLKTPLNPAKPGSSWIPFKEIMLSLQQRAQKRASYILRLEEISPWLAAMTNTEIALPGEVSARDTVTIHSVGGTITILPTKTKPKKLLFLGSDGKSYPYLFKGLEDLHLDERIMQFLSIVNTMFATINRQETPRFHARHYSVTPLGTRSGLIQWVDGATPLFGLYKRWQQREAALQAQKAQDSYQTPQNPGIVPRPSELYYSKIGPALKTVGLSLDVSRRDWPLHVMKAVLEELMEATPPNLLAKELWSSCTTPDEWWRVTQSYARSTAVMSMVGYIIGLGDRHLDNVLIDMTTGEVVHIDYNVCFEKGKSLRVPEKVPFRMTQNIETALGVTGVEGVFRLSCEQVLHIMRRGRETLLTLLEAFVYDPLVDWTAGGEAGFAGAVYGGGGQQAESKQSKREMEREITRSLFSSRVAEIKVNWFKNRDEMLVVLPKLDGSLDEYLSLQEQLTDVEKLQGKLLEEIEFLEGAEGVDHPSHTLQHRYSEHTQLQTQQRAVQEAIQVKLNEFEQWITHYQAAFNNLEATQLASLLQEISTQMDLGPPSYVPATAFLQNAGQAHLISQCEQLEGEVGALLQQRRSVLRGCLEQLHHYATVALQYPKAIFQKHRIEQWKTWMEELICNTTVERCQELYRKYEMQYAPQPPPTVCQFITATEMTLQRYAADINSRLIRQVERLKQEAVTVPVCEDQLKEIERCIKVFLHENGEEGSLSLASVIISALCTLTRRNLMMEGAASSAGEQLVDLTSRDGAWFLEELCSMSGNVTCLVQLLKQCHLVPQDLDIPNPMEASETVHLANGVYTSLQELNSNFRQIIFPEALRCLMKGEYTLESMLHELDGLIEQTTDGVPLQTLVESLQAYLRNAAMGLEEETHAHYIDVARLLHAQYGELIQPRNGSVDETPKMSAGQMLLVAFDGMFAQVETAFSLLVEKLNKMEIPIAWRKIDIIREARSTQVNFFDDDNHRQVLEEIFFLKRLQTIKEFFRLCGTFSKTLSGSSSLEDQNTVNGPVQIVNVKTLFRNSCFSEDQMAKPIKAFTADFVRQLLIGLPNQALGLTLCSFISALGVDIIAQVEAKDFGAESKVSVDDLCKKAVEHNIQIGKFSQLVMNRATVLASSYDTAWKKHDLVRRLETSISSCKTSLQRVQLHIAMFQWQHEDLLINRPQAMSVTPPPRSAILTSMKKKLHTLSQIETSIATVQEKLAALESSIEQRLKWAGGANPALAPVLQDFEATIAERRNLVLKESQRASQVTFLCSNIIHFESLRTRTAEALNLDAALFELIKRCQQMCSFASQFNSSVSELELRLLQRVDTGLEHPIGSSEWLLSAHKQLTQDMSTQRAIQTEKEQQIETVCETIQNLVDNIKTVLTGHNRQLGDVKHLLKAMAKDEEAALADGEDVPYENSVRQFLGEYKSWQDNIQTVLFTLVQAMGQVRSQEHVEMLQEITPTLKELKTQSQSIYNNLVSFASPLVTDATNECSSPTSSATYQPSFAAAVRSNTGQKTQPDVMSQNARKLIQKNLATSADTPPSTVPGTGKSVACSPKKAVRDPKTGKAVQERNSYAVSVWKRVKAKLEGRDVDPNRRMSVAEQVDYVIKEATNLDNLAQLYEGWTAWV

Row | SMILES | IC50 (human SMG1 enzyme) [nM] | EC50 [1] [nM]
1 | Cn1ccc(-c2nccc3[nH]c(=O)c(-c4nc5cnc(Cl)cc5[nH]4)cc23)c1 [Example 86, 3-(6-chloro-1H-imidazo[4,5-c]pyridin-2-yl)-5-(1-methyl-1H-pyrrol-3-yl)-1,6-naphthyridin-2(1H)-one] | 1.8 | 43
2 | [2H]C([2H])([2H])Oc1ccccc1-c1nccc2[nH]c(=O)c(-c3nc4c(CC(=O)NC(C)(C)C)nc(Cl)cc4[nH]3)cc12 [Example 42, N-tert-butyl-2-[6-chloro-2-(5-{2-[(^2H3)methyloxy]phenyl}-2-oxo-1,2-dihydro-1,6-naphthyridin-3-yl)-1H-imidazo[4,5-c]pyridin-4-yl]acetamide] | 2.6 | 124
3 | CC(C)(O)c1cccc(-c2nccc3[nH]c(=O)c(-c4nc5cnc(Cl)cc5[nH]4)cc23)c1 [Example 46, 3-(6-chloro-1H-imidazo[4,5-c]pyridin-2-yl)-5-[3-(2-hydroxypropan-2-yl)phenyl]-1,6-naphthyridin-2(1H)-one] | 1.8 | 115
4 | CCc1nc(Cl)cc2[nH]c(-c3cc4c(-c5cnc(C6CC6)cc5OC(F)F)nccc4[nH]c3=O)nc12 [Example 75, 3-(6-chloro-4-ethyl-1H-imidazo[4,5-c]pyridin-2-yl)-5-[6-cyclopropyl-4-(difluoromethoxy)pyridin-3-yl]-1,6-naphthyridin-2(1H)-one] | 1.2 | 51
5 | COc1ncc(-c2nccc3[nH]c(=O)c(-c4nc5c(N6C[C@H](F)C[C@H]6C)nc(Cl)cc5[nH]4)cc23)c(OC)n1 [Example 71, 3-(6-chloro-4-[(2R,4R)-4-fluoro-2-methylpyrrolidin-1-yl]-1H-imidazo[4,5-c]pyridin-2-yl)-5-(2,4-dimethoxypyrimidin-5-yl)-1,6-naphthyridin-2(1H)-one] | 1.3 | 2.3
6 | CCc1nc(Cl)cc2[nH]c(-c3cc4c(-c5c(C)cnn5C)nccc4[nH]c3=O)nc12 [Example 87, 3-(6-chloro-4-ethyl-1H-imidazo[4,5-c]pyridin-2-yl)-5-(1,4-dimethyl-1H-pyrazol-5-yl)-1,6-naphthyridin-2(1H)-one] | 1.3 | 59
7 | C[C@@H]1COCCN1c1nc(Cl)cc2[nH]c(-c3cc4c(C5(C)CC5)nccc4[nH]c3=O)nc12 [Example 2, 3-{6-chloro-4-[(3R)-3-methylmorpholin-4-yl]-1H-imidazo[4,5-c]pyridin-2-yl}-5-(1-methylcyclopropyl)-1,6-naphthyridin-2(1H)-one] | 4.9 | 94
8 | Cc1ccccc1-c1nccc2[nH]c(=O)c(-c3nc4c(N5CCCC(N)C5)nc(Cl)cc4[nH]3)cc12 (stereo not drawn) [Example 56, 3-[4-(3-aminopiperidin-1-yl)-6-chloro-1H-imidazo[4,5-c]pyridin-2-yl]-5-(2-methylphenyl)-1,6-naphthyridin-2(1H)-one hydrochloride] | 0.52 | 1.2
9 | COc1nc(C)ccc1-c1nccc2[nH]c(=O)c(-c3nc4c(C)nc(Cl)cc4[nH]3)cc12 [Example 67, 3-(6-chloro-4-methyl-1H-imidazo[4,5-c]pyridin-2-yl)-5-(2-methoxy-6-methylpyridin-3-yl)-1,6-naphthyridin-2(1H)-one] | 1 | 32
10 | [2H]C([2H])([2H])Oc1ccccc1-c1nccc2[nH]c(=O)c(-c3nc4c(N=S(C)(C)=O)nc(Cl)cc4[nH]3)cc12 [Example 44, 3-(6-chloro-4-{[dimethyl(oxide)-A6-sulfanylidene]amino}-1H-imidazo[4,5-c]pyridin-2-yl)-5-{2-[(^2H3)methyloxy]phenyl}-1,6-naphthyridin-2(1H)-one] | 0.5 | 54

The next lines start with the values.

Row | IC50 (human SMG1 enzyme) [nM] | EC50 [1] [nM] | SMILES
11 | 0.64 | 30 | CN1CCCN(C)c2nc(Cl)cc3[nH]c(nc23)-c2cc3c(nccc3[nH]c2=O)-c2ccc(cc2F)C1=O [Example 107, 7-Chloro-18-fluoro-10,14-dimethyl-3,8,10,14,21,25,31-heptaazahexacyclo[18.6.2.2^16,19.1^2,5.0^4,9.0^24,28]hentriacont-1(27),2,4,6,8,16,18,20(28),21,23,29-undecaen-15,26-dione]
12 | 1.1 | 46 | Cc1nn(C)c(C)c1-c1nccc2[nH]c(=O)c(-c3nc4cnc(Cl)cc4[nH]3)cc12 [Example 88, 3-(6-chloro-1H-imidazo[4,5-c]pyridin-2-yl)-5-(1,3,5-trimethyl-1H-pyrazol-4-yl)-1,6-naphthyridin-2(1H)-one]
13 | 1 | 82 | O=c1[nH]c2ccnc(-c3cnn4c3OCCC4)c2cc1-c1nc2cnc(Cl)cc2[nH]1 [Example 95, 3-(6-chloro-1H-imidazo[4,5-c]pyridin-2-yl)-5-(6,7-dihydro-5H-pyrazolo[5,1-b][1,3]oxazin-3-yl)-1,6-naphthyridin-2(1H)-one]
14 | 1.4 | 46 | Cc1nccc2[nH]c(=O)c(-c3nc4c(N5C[C@H](O)C[C@H]5C)nc(Cl)cc4[nH]3)cc12 [Example 121, 3-{6-chloro-4-[(2R,4R)-4-hydroxy-2-methylpyrrolidin-1-yl]-1H-imidazo[4,5-c]pyridin-2-yl}-5-methyl-1,6-naphthyridin-2(1H)-one methanesulfonate]
15 | 0.64 | 58 | Cc1nn2c(C)c1-c1nccc3[nH]c(=O)c(cc13)-c1nc3c(nc(Cl)cc3[nH]1)NCC(C)(C)CNC(=O)C2 [Example 115, 7-chloro-12,12,19,30-tetramethyl-3,8,10,14,17,18,22,26,31-nonaazahexacyclo[19.6.2.1^2,5.1^17,20.0^4,9.0^25,29]hentriacont-1(28),2,4,6,8,18,20(30),21(29),22,24-decaen-15,27-dione]
16 | 1.5 | 60 | Cc1c(-c2nccc3[nH]c(=O)c(-c4nc5cnc(Cl)cc5[nH]4)cc23)c(C(F)F)nn1C(C)C [Example 94, 3-(6-chloro-1H-imidazo[4,5-c]pyridin-2-yl)-5-[3-(difluoromethyl)-5-methyl-1-(propan-2-yl)-1H-pyrazol-4-yl]-1,6-naphthyridin-2(1H)-one]
17 | 1 | 2 | Cc1c2cccc1-c1nccc3[nH]c(=O)c(cc13)-c1nc3c(nc(Cl)cc3[nH]1)N(C)CCCN(C)C2=O [Example 108, 7-chloro-10,14,30-trimethyl-3,8,10,14,22,26,31-heptaazahexacyclo[19.6.2.1^2,5.1^16,20.0^4,9.0^25,29]hentriacont-1(28),2,4,6,8,16(30),17,19,21(29),22,24-undecaen-15,27-dione]
18 | 1.1 | 3.2 | Cc1nn2c(C)c1-c1nccc3[nH]c(=O)c(cc13)-c1nc3c(nc(Cl)cc3[nH]1)N(C)CCCN(C)C(=O)C2C (stereo not drawn) [Example 114, 7-chloro-10,14,16,19,30-pentamethyl-3,8,10,14,17,18,22,26,31-nonaazahexacyclo[19.6.2.1^2,5.1^17,20.0^4,9.0^25,29]hentriacont-1(28),2,4,6,8,18,20(30),21(29),22,24-decaen-15,27-dione]

— patent US20260109715A1, “IMIDAZOPYRIDINE DERIVATIVES WITH BICYCLIC STRUCTURE” (PUBLIC UNIVERSITY CORPORATION YOKOHAMA CITY UNIVERSITY, priority 2022, published 2026)
